Data published in ChEMBL document CHEMBL1157443, “Synthesis and in vitro anti-hepatitis B virus activities of 4-aryl-6-chloro-quinolin-2-one and 5-aryl-7-chloro-1,4-benzodiazepine derivatives” (Bioorg Med Chem Lett, 2008).

Assays:
[1] = system: Hepatitis B virus; experiment: Antiviral activity against hepatitis B virus infected Hep G2.2.15 cells assessed as inhibition of HBsAg secretion; type: functional, organism-based; conditions: HepG2 2.2.15
[2] = Cytotoxicity against human Hep G2.2.15 cells; type: cell-based, HepG2 2.2.15
[3] = Selectivity index, ratio of CC50 for human Hep G2.2.15 cells to IC50 for HBV surface antigen secretion; type: functional
[4] = Selectivity index, ratio of CC50 for human Hep G2.2.15 cells to IC50 for HBV e antigen secretion; type: functional
[5] = system: Hepatitis B virus; experiment: Antiviral activity against hepatitis B virus infected Hep G2.2.15 cells assessed as inhibition of HBeAg secretion; type: functional, organism-based; conditions: HepG2 2.2.15

Row | Structure (SMILES) | IC50 [1] [µM] | CC50 [2] [µM] | Ratio CC50/IC50 [3] | Ratio CC50/IC50 [4] | IC50 [5] [µM]
1 | CC(=O)OC1N=C(c2ccccc2F)c2cc(Cl)ccc2NC1=O (stereo not given) | 160 | 344 | 2.2 | <1 | 1220
2 | CC(=O)OC1N=C(c2ccccc2Cl)c2cc(Cl)ccc2NC1=O (stereo not given) | 167 | 154 | <1 | <1 | 1940
3 | Nc1c(-c2ccccc2Cl)c2cc(Cl)ccc2[nH]c1=O | 341 | 341 | 1 | <1 | > 5470
4 | O=c1[nH]c2ccc(Cl)cc2c(-c2ccccc2F)c1CCO | 187 | > 2990 | >16 | >5.5 | 545
5 | O=C1CN2OC2(c2ccccc2Cl)c2cc(Cl)ccc2N1 (stereo not given) | 355 | 302 | <1 | <1 | 4490
6 | O=c1[nH]c2ccc(Cl)cc2c(-c2ccccc2)c1CCO | 300 | > 4910 | >16 | >5.2 | 950
7 | O=C1CN2OC2(c2ccccc2F)c2cc(Cl)ccc2N1 (stereo not given) | 195 | 346 | 1.8 | <1 | > 3260
8 | Nc1c(-c2ccccc2)c2cc(Cl)ccc2[nH]c1=O | 67 | 399 | 6 | <1 | > 3990
9 | CC(=O)OC1N=C(c2ccccc2)c2cc(Cl)ccc2NC1=O (stereo not given) | 292 | 678 | 2.3 | <1 | > 4260
10 | O=C1CN2OC2(c2ccccc2)c2cc(Cl)ccc2N1 (stereo not given) | 728 | 946 | 1.3 | <1 | > 3280
11 | O=C1CN=C(c2ccccc2F)c2cc(Cl)ccc2N1 | 294 | 183 | <1 | <1 | 5360
12 | O=c1cc(-c2ccccc2F)c2cc(Cl)ccc2[nH]1 | 2840 | > 5460 | >1.9 | >2.4 | 2220
13 | CC(=O)Nc1c(-c2ccccc2)c2cc(Cl)ccc2[nH]c1=O | 208 | 239 | 1.1 | <1 | 1870
14 | CC(=O)Nc1c(-c2ccccc2Cl)c2cc(Cl)ccc2[nH]c1=O | 129 | 208 | 1.6 | 2.6 | 80
15 | Nc1ccn([C@@H]2CS[C@H](CO)O2)c(=O)n1 [LAMIVUDINE] |  | 30000 | 2.6 | 1.2 | 
16 | O=C1CN=C(c2ccccc2Cl)c2cc(Cl)ccc2N1 [DELORAZEPAM] | 76 | 76 | <1 | <1 | 4080
17 | O=C1CN=C(c2ccccc2)c2cc(Cl)ccc2N1 [NORDAZEPAM] | 255 |  |  |  | 835
18 | O=c1cc(-c2ccccc2Cl)c2cc(Cl)ccc2[nH]1 | 752 | 6000 | 8 | <1 | > 6000
19 | O=c1[nH]c2ccc(Cl)cc2c(-c2ccccc2Cl)c1CCO | 74 | 1720 | 23 | 3.4 | 449
20 | CC(=O)Nc1c(-c2ccccc2F)c2cc(Cl)ccc2[nH]c1=O | 141 | 44 | <1 | <1 | 79
21 | O=c1cc(-c2ccccc2)c2cc(Cl)ccc2[nH]1 | 485 | 1250 | 2.6 | <1 | > 4140
22 | Nc1c(-c2ccccc2F)c2cc(Cl)ccc2[nH]c1=O | 56 | 767 | 14 | <1 | > 3610
